# Results reported in patent publication US20050159364A1, “Copper antagonist compounds” (priority 2003, published 2005).
# “And” between values parts separate entries of the source, which are not always exact repeats. Equal entries are not always repeated. “Also recorded” adds a separate entry of the source. Structures can show the parent of a compound that is named as a salt. Where two headings read alike, the source gives them in different places. Marks after values point to notes of the source that are not given here.
# Assays:
# [1] = test system: Male Wistar rats; test: Effects of streptozotocin (STZ) treatment in rats; assay type: in vivo, rat
# Description: Male Wistar rats (n=28, 303±2.9 g) were divided randomly into STZ-treated and non-treated groups. […] Non-treated animals received an equivalent volume of saline. […] Blood glucose and body weight were measure at day 3 following STZ/saline injection and then weekly throughout the study.
# [2] = test system: Tg2576 transgenic mice; details: oral treatment, nine weeks for clioquinol; cited from earlier work
# [3] = test system: STZ-treated and non-STZ-treated rats; details: for Serum Cu: trientine i.v. 0.1-100 mg.kg^−1 hourly, terminal sample; for Serum Fe: trientine i.v.
# Description: All animals were fasted overnight prior to surgery but continued to have ad libitum access to deionized water. […] The femoral artery and vein were cannulated with a solid-state blood pressure transducer (Mikrotip™ 1.4F, Millar Instruments, Texas, USA) and a saline filled PE 50 catheter respectively. The ureters were exposed via a midline abdominal incision, cannulated using polyethylene catheters (external diameter 0.9 mm, internal diameter 0.5 mm) and the wound sutured closed. The trachea was cannulated and the animal ventilated at 70-80 breaths.min^−1 with air supplemented with O2 (Pressure Controlled Ventilator, Kent Scientific, Conn., USA). The respiratory rate and end-tidal pressure (10-15 cmH2O) were adjusted to maintain end-tidal CO2 at 35-40 mmHg (SC-300 CO2 Monitor, Pryon Corporation, Wisconsin, USA). Body temperature was maintained at 37° C. throughout surgery and the experiment by a heating pad. Estimated fluid loss was replaced with intravenous administration of 154 mmol.l^−1 NaCl solution at a rate of 5 ml.kg^−1.h^−1.
# (§1) Following surgery and a 20 min stabilization period, the experimental protocol was started. […] Control animals received an equivalent volume of saline. Urine was collected in 15 min aliquots throughout the experiment in pre-weighed polyethylene epindorf tubes. At the end of the experiment a terminal blood sample was taken by cardiac puncture and the separated serum stored at −80° C. until future analysis. Hearts were removed through a rapid mid-sternal thoracotomy and processed as described below.
# Urine and tissue analysis was carried out as follows. Instrumentation:A Perkin Elmer (PE) Model 3100 Atomic Absorption Spectrophotometer equipped with a PE HGA-600 Graphite Furnace and PE AS-60 Furnace Autosampler was used for Cu and Fe determninations in urine. Deuterium background correction was employed. A Cu or Fe hollow-cathode lamp (Perkin Elmer Corporation) was used and operated at either 10 W (Cu) or 15 W (Fe). The 324.8 nm atomic line was used for Cu and the 248.3 nm atomic line for Fe. The slit width for both Cu and Fe was 0.7 nm. Pyrolytically coated graphite tubes were used for all analyses. The injection volume was 20 μL. A typical graphite furnace temperature program is shown below:
# Sample pretreatment was carried out as follows. Urine:Urine was collected in pre-weighed 1.5 ml micro test tubes (eppendorf). After reweighing, the urine specimens were centrifuged and the supernatant diluted 25:1 with 0.02 M 69% Aristar grade HNO3. The sample was stored at 4° C. prior to GF-AAS analysis. If it was necessary to store a sample for a period in excess of 2 weeks, it was frozen and kept at −20° C. Serum:Terminal blood samples were centrifuged and serum treated and stored as per urine until analysis. From the trace metal content of serum from the terminal blood sample and urine collected over the final hour of the experiment, renal clearance was calculated using the following equation: [formula]
# [4] = test system: humans with T2DM or matched controls; details: for Mean CU Losses, fecal, Post-Tment: n = 10, oral 2.4 g once daily
# Description: Total metal balance studies were performed in a residential metabolic unit. Total fecal outputs were collected daily for 12 days, freeze dried, and analyzed by ICP-MS for content of Cu, Fe, Zn, Ca, Mg, Mn, Cr, […] and Se.
# [5] = 0.9% saline, 0.67-670 mg/ml, four months at 4° C.
# Description: The concentrations of the stock formulations were:0.67 mg/ml, 6.7 mg/ml, 67 mg/ml, and 670 mg/ml. The formulation was then administered to the rats in doses of 0.1 mg/kg, 1 mg/kg, 10 mg/kg, and 100 mg/kg to the animals respectively.
# [6] = test system: STZ-treated and non-STZ-treated rats; details: highest dose 100 mg/kg i.v., 2 min following administration
# Description: as §1
# Mean arterial pressure (MAP), heart rate (HR, derived from the MAP waveform) oxygen saturation (Nonin 8600V Pulse Oximeter, Nonin Medical Inc., Minnesota, USA) and core body temperature, were all continuously monitored throughout the experiment using a PowerLab/16s data acquisition module (AD Instruments, Australia).
# Following surgery and a 20 min stabilization period, the experimental protocol was started. […] Urine was collected throughout the experiment in 15 min aliquots.
# [7] = 15 days
# Description: One sample of the solution was stored in the dark at 4° C. and 21° C. in the dark and a third sample was stored at 21° C. in daylight.
# The Ultraviolet-visible spectrum of the formulation was initially measured at day 0 and then at day 15. 20 μl aliquots of sample solutions were taken at day 15. For each aliquot 960 μl of 50 mM TRIS buffer and 20 μl aliquot of Copper Nitrate standard (100 mM—Orion Research Inc) were added.
# [8] = test system: STZ-treated and normal rats; test: Isolated working heart function after 7 weeks oral trientine
# [9] = test system: male humans with T2DM and matched non-diabetic controls
# Description: Methods were as follows. Human studies were approved by institutional ethics and regulatory committees. We measured urinary metal excretion in human males with T2DM or matched non-diabetic controls, baseline information on which is shown in Table 9, in a randomized, double blind, placebo-controlled trial. Males with uncomplicated T2DM (Table 9) underwent 12-d elemental balance studies in a fully residential metabolic unit. All foods and beverages were provided. Total daily intake (method of double diets) and excretion (urinary and fecal) of trace elements (Ca, Mg, Zn, Fe, Cu, Mn, Mo, Cr and Se) were determined (ICP MS).
# [10] = test system: humans with T2DM; test: 6-month double-blind placebo-controlled oral trientine trial, LV mass by cardiac MRI
# Description: Subjects (30-70 y) who provided written informed consent were eligible for inclusion if they had:T2DM with HbA1c>7%; cardiac ejection fraction (echocardiography)≧45% with evidence of diastolic dysfunction but no regional wall-motion anomalies; no new medications for more than 6 months with no change of β-blocker dose; normal electrocardiogram (sinus rhythm, normal PR Interval, normal T wave and QRS configuration, and isoelectric ST segment); and greater than 90% compliance with single-blinded placebo therapy during a 2-w run-in period. Women were required to be post-menopausal, surgically sterile, or non-lactating and non-pregnant and using adequate contraception.
# Before randomization, potentially eligible subjects entered a 4-w single blind run-in phase of two placebo-capsules twice-daily and underwent screening echocardiography, being excluded if regional wall motion abnormalities or impaired LV systolic function (ejection fraction <50%) were detected. In addition, LV diastolic filling was assessed using mitral inflow Doppler (with pre-load reduction) to ensure patients had abnormalities of diastolic filling; no patient with normal mitral filling proceeded to randomisation. […] The double-blind treatment was continued for 6 months in each subject.
# At baseline and following 6 months' treatment, LV mass was determined using cardiac MRI, performed in the supine position with the same 1.5 T scanner (Siemens Vision) using a phased array surface coil. Prospectively gated cardiac cine images were acquired in 6 short axis and 3 long axis slices with the use of a segmented k-space pulse sequence (TR 8 ms; TE 5 ms; flip angle 10°; field of view 280-350 mm) with view sharing (11-19 frames.slice^−1). Each slice was obtained during a breath-hold of 15-19 heartbeats. The short axis slices spanned the left ventricle from apex to base with a slice thickness of 8 mm and inter-slice gap of 2-6 mm. The long axis slices were positioned at equal 60° intervals about the long axis of the LV. […] LV-mass and volume were calculated using guide point modeling, which produces precise and accurate estimations of mass and volume. Briefly, a three dimensional mathematical model of the LV was interactively fitted to the epicardial and endocardial boundaries of the LV wall in each slice of the study, simultaneously. Volume and mass were then calculated from the model by numerical integration (mass=wall volume×1.05 g.ml^−1). All measurements were performed by 1 measurer at the end of six months' data collection. Outcome analyses were conducted by intention-to-treat, using a maximum likelihood approach to impute missing at random data within a mixed model, and marginal least-squares adjusted-means were determined. Changes from baseline were compared between treatment-groups in the mixed model with baseline values entered as covariate. Since there were only 2 groups in the main effect and no interaction effect, no post hoc procedures were employed. In additional analysis the influence of clinically important differences between the treatment groups at baseline was considered by adjusting for them as covariates in an additional model. All P values were calculated from 2-tailed tests of statistical significance and a 5% significance level was maintained throughout. The effect of treatment on categorical variables was tested using the procedures of Mantel and Haenzel (SAS v8.01, SAS Institute).
# [11] = test system: STZ-treated and non-STZ-treated rats; test: Left ventricular histology by LCM and TEM after oral trientine
# [12] = test system: STZ-treated and non-STZ-treated rats; details: for Cu content of heart tissue / Fe content of heart tissue: mean ± SEM
# Description: Methods were carried out as follows. Spectrophotometric analysis was conducted as described in Example 2. Cu, Fe and Zn in tissue digests were determined at Hill Laboratories (Hamilton, New Zealand) using either a PE Sciex Elan-6000 or PE Sciex Elan-6100 DRC ICP-MS.
# Sample pre-treatment was carried out as follows. Heart:Following removal from the animal, the heart was cleaned of excess tissue, rinsed in buffer to remove excess blood, blotted dry and a wet ventricular weight recorded. Using titanium instruments a segment of left ventricular muscle was dissected and placed in a pre-weighed 5.0 ml polystyrene tube. The sample was freeze-dried overnight to constant weight before 0.45 ml of 69% Aristar grade HNO3 was added. The sample tube was heated in a water bath at 65° C. for 60 minutes. The sample was brought to 4.5 ml with Milli-Q H2O. The resulting solution was diluted 2:1 in order to reduce the HNO3 concentration below the maximum permitted for ICP-MS analysis.
# [13] = STZ-treated animals n = 14, mean ± SEM
# [14] = STZ-treated rats, oral trientine 7 weeks
# [15] = STZ-treated and non-STZ-treated rats
smiles,measurement,setting,value
"CN(N=O)C(=O)N[C@H]1C(O)O[C@H](CO)[C@@H](O)[C@@H]1O (mixture of isomers) [STZ, streptozotocin]",Daily food consumption,"[1]; STZ 55 mg.kg^−1 i.v., n = 14, mean ± SEM",*58 ± 1 g
same,"Heart rate (HR), control period prior to infusion",[1]; STZ-treated anaesthetized rats,287±11 bpm
same,Heart weight/body weight,[1]; [13],*2.93 ± 0.05 mg · g^−1
same,Wet heart weight,[1]; [13],*0.78 ± 0.02 g
Oc1c(I)cc(Cl)c2cccnc12 [clioquinol],Brain Aβ / amyloid deposition,[2],decrease in brain Aβ deposition
NCCNCCNCCN [trientine dihydrochloride],Cu excretion in urine versus saline at lowest dose,"[3]; 0.1 mg.kg^−1 parenteral, rats",significantly increased
same,Effect on fecal Cu output,"[4]; normal humans and those with T2DM, dihydrochloride",does not result in increased excretion of copper in the feces
NCCNCCNCCN [trientine hydrochloride],Stability of stock solutions on storage (copper chelation efficacy),[5]; hydrochloride,without appreciable deterioration in efficacy
NCCNCCNCCN [trientine],Maximum decrease of mean arterial pressure (MAP),[6],19±4 mmHg and 19+/−4 mmHg
same,Change in ability to chelate copper on storage,"[7]; 100 mM in deionized water, 4° C. dark, 21° C. dark, 21° C. daylight",no detectable change
same,Effect of room light on copper chelation,"[7]; 100 mM solution, 21° C., daylight",no detectable detrimental effect
same,Cardiac function versus untreated STZ-treated controls,[8]; [14],improved cardiac function
same,"Cardiac output with increasing pre-load, after-load constant",[8]; [14],restored to Sham values
same,Trientine treated STZ-treated hearts still functioning when 50% of untreated STZ-treated hearts had failed,"[8]; increasing after-load, constant pre-load",about 90%
same,Effect on cardiac performance of normal animals,"[8]; non-STZ-treated rats, oral trientine 7 weeks",no adverse effects on cardiac performance
same,Blood glucose profile versus untreated comparison group,[8]; oral trientine in drinking water weeks 7-13,made no difference
same,heart:body weight ratio in STZ-treated animals,[8]; oral trientine weeks 7-13 versus untreated STZ,small but significant improvement
same,Urine excretion versus saline,"[3]; 100 mg.kg^−1 dose, non-STZ-treated rats",increased urine excretion
same,Total copper excreted over the entire duration of the experiment versus saline controls,[3]; [15],significantly increased
same,Urinary iron excretion versus saline,[3]; [15],not increased
same,Serum Cu,"[3]; STZ-treated rats, n = 6",7.56 ± 0.06 μg · μl^−1 × 10^−4
same,Serum Fe,"[3]; STZ-treated rats, n = 6",35.7 ± 7.98 μg · μl^−1 × 10^−4
same,Urinary Cu excretion versus equivalent volume of saline,"[3]; all doses 0.1, 1.0, 10, 100 mg.kg^−1 i.v., STZ-treated and non-STZ-treated rats",excreted more Cu
same,"Urinary copper excretion per gram of bodyweight, STZ-treated versus non-STZ-treated",[3]; following trientine administration,greater per gram of bodyweight in STZ-treated
same,Serum Cu,"[3]; non-STZ-treated rats, n = 4",7.11 ± 0.41 μg · μl^−1 × 10^−4
same,Serum Fe,"[3]; non-STZ-treated rats, n = 4",33.6 ± 1.62 μg · μl^−1 × 10^−4
same,Stability of stock solutions on storage (copper chelation efficacy),[5],remains active as a copper chelator
same,Mean trientine-evoked urinary Cu-excretion,"[9]; T2DM, oral 2.4 g once-daily",5.8 µmol/day
same,"Urinary Cu, diabetic and control groups","[9]; day 7, oral 2.4 g",increased urinary Cu in both groups
same,Mean trientine-evoked urinary Cu-excretion,"[9]; non-diabetic controls, oral 2.4 g once-daily",4.1 µmol/day
same,Increase of trientine-evoked urinary Cu-excretion in T2DM compared to non-diabetic controls,[9]; oral 2.4 g once-daily,40%
same,Trientine-evoked urinary Fe excretion,[9]; oral 2.4 g once-daily,no corresponding increase
same,"Urinary Cu excretion, trientine-treated T2DM versus trientine-treated non-diabetic controls","[9]; single 2.4-g oral dose, day 7, P<0.05",significantly greater
same,Adverse events during 6 months' therapy,[10]; 600 mg twice-daily oral,No significant trientine-related adverse events
same,Δ diastolic blood pressure,"[10]; 6 months − baseline, mean",−3.9 mmHg
same,Δ systolic blood pressure,"[10]; 6 months − baseline, mean",−3.5 mmHg
same,Δ urinary copper,"[10]; 6 months − baseline, mean",-0.83 µmol/L
same,Δ left ventricular mass/body surface area,"[10]; 6 months − baseline, mean, P<0.01 vs. placebo",−5.56** g · m^−2
same,Decrease of mean LV mass,"[10]; diabetics, 600 mg twice-daily oral, 6 months",5%
same,Myocardium of trientine-treated non-STZ-treated rats,[11],appeared normal
same,Myocardial (LV) histology in STZ-treated rats,[11]; 7 weeks oral trientine,improved; also recorded: substantive recovery of LV structure
same,Cu content of heart tissue,[12]; STZ-treated rats,24.7 ± 1.5 μg · g^−1 dry tissue
same,Fe content of heart tissue,[12]; STZ-treated rats,186 ± 46 μg · g^−1 dry tissue
same,Effect on copper content of cardiac tissue,"[12]; acute i.v. increasing doses, normal and STZ-treated rats",no significant effect
same,Cu content of heart tissue,[12]; non-STZ-treated rats,27.1 ± 1.0 μg · g^−1 dry tissue
same,Fe content of heart tissue,[12]; non-STZ-treated rats,235 ± 39 μg · g^−1 dry tissue
same,"Mean CU Losses, fecal, Post-Tment",[4]; control,2.045 mg/day
same,"Mean CU Losses, fecal, Post-Tment",[4]; diabetic,1.965 mg/day
same,"Effect on fecal outputs of Zn, Fe, Ca, Mg, Mn, Cr, Mb or Se",[4]; oral 2.4 g once daily,Neither diabetes nor trientine had measurable effects
same,Brain Aβ / amyloid deposition,[2],did not inhibit amyloid deposition
